As usually defined, the AC50 is the concentration at which the activity in the assay is half-maximal. For orientation: IC50 means the point on the concentration scale where inhibition reaches its midpoint.

This passage reports AC50 and IC50 results from ChEMBL document CHEMBL1201862, “PubChem BioAssay data set” (2004).

The test system of one experiment is INS1. Briefly: beta cell apoptosis inhibitors, cytokine rescue, dose response, luminescence, retest (AID 449756).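 Also: cell death triggered by IL-1 beta plus TNF-alpha plus IFN-gamma mixture; protective hits raise ATP signal compared with cytokine alone wells.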 Format: functional, cell-based. The settings on record: Rattus norvegicus.
A further experiment addresses Caspase-8 (Homo sapiens, UniProt Q14790). The experiment in a line: caspase-8 inhibition counter-screen, dose response, selectivity assay for caspase-6 inhibitor project, biochemical, Z-IETD-R110 fluorescence, cherry-picked samples (AID 743294).
A further experiment deals with T1, Exodeoxyribonuclease V (Escherichia coli (strain K12), UniProt P04993+P07648+P08394).
T1 sequence (P04993 whole entry): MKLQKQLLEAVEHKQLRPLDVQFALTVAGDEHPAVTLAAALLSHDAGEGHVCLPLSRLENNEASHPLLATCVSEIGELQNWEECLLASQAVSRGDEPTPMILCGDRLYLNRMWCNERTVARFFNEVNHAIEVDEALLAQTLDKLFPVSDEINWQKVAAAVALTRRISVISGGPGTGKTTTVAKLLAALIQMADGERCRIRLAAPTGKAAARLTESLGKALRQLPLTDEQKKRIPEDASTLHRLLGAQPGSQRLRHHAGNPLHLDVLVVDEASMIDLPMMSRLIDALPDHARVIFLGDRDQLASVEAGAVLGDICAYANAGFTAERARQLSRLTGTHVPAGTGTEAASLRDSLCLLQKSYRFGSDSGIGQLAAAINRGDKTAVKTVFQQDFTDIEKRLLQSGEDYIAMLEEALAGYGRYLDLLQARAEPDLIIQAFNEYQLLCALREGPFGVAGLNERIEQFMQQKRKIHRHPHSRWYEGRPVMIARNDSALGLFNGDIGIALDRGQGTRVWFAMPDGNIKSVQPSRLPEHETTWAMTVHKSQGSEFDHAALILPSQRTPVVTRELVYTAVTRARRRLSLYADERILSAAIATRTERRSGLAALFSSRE
T1 sequence (P07648 whole entry): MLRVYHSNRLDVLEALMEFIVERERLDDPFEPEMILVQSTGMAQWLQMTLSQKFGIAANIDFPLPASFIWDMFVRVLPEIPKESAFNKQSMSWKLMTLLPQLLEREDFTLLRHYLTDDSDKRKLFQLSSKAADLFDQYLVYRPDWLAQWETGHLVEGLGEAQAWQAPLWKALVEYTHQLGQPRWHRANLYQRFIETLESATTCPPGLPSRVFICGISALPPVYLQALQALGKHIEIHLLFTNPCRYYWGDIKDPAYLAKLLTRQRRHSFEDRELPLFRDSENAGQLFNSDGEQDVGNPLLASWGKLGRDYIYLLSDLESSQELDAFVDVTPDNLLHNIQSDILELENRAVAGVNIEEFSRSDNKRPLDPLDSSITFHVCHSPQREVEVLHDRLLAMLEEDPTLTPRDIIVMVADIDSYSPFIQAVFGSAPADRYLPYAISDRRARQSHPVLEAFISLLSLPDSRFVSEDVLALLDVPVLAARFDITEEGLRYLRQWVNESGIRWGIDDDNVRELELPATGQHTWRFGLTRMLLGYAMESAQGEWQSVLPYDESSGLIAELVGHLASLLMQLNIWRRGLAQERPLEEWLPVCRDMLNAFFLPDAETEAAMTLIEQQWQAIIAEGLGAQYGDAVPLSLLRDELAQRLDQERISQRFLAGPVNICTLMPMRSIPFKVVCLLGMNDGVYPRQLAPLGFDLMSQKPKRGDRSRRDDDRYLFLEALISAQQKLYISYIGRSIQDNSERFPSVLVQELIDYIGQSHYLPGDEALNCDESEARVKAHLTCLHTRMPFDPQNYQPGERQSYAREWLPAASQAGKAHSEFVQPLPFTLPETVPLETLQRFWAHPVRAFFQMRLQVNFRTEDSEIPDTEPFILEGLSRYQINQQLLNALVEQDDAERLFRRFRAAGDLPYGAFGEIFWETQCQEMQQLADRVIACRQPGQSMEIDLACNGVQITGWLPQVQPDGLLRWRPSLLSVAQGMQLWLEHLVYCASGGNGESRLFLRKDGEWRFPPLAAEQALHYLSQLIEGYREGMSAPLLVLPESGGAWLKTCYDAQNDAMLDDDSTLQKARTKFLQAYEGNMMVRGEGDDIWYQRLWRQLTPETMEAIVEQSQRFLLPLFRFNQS
T1 sequence (P08394 whole entry): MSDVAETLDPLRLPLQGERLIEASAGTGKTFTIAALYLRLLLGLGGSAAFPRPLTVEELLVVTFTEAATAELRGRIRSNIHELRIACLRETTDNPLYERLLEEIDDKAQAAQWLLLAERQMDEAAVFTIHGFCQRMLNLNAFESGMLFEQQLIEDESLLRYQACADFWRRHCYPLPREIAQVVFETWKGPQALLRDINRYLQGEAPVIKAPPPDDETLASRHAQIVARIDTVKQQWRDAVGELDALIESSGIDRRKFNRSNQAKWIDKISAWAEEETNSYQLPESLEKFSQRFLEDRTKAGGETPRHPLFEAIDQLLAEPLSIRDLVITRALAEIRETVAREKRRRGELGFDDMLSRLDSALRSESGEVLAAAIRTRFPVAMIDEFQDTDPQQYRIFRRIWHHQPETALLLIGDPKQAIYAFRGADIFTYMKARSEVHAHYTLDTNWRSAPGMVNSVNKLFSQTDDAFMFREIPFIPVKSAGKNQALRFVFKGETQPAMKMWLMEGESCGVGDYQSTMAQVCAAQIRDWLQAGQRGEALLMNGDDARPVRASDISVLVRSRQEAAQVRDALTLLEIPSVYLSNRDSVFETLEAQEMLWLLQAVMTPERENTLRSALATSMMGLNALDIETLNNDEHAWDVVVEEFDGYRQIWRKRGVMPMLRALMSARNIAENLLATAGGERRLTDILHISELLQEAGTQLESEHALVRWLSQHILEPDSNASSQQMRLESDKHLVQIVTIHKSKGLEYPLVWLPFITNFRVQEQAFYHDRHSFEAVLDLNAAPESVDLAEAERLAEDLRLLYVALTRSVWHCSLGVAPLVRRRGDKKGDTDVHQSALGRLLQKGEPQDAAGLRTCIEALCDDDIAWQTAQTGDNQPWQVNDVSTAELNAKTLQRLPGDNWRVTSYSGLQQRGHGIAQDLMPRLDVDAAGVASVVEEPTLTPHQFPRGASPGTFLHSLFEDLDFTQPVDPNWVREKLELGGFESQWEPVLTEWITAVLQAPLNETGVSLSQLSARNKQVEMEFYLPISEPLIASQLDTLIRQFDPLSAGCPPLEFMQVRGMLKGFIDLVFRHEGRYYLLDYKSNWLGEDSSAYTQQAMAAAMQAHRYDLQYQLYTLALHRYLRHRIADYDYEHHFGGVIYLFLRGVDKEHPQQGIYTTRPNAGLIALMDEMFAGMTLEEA
Briefly: E. coli RecBCD inhibitors, dose response, counter-screen for AddAB inhibitor project, absorbance, V66 E. coli, mutant T4 phage (AID 492957). Format: functional, cell-based, Escherichia coli str. K-12 substr. MG1655. (In general: The purpose of a counterscreen is to sort out artefacts and off-target activity.)

Molecules are shown by their SMILES. Activity calls are given as the source filed them. Rule as the data show it, for most assays here: actives have a measured AC50 and inactives only a lower limit. Where only a bound is given, the exact number is not on record here.

Chain of Caspase-8 (Q14790 217-374 limits assumed): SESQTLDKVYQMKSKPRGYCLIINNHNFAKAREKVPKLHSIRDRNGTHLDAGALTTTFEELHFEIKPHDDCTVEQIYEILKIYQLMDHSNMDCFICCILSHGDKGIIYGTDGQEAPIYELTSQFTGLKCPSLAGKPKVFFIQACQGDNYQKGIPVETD
Chain of Caspase-8 (Q14790 385-479 limits assumed): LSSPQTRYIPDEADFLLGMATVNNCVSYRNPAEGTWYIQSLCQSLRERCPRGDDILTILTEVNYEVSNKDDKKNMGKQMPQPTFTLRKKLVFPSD

Take `Nc1ccc2c(c1)C(=O)C(=O)c1ccccc1-2`: the AC50 in the experiment with INS1 is 1.06 µM (active).

In the case of `COc1cc(-c2ccc(Nc3ccccc3C(=O)O)c(OC)c2)ccc1Nc1ccccc1C(=O)O`, the AC50 on Caspase-8 is 48 µM (active).

As to `CCCC(=O)NC(c1ccccc1OC)c1ccc2cccnc2c1O` (stereo unspecified), the IC50 at Exodeoxyribonuclease V was > 119 µM (inactive). The concentration at half-maximal activity (AC50) in the experiment on INS1 is 1.14 µM (active).

On to `COc1ccc(OC)c(Nc2cc3ccccc3c(O)n2)c1`, for which the half-maximal activity concentration (AC50) on Caspase-8 is 6.14 µM (active).

As to `Cc1ccc2nc(/C(C#N)=C\c3ccc([N+](=O)[O-])o3)[nH]c2c1`, on Exodeoxyribonuclease V, the IC50 was > 119 µM (inactive).
